Data reported in article PMC7072645, “Targeting the Class A Carbapenemase GES-5 via Virtual Screening” (Biomolecules, 2020).

What was measured:
GES-5 [1] = biological target: T1, GES-5 (Klebsiella pneumoniae, UniProt Q09HD0); type: biochemical; conditions: reporter substrate, purified recombinant GES-5
T1 construct: made in house; host or cells: E. coli BL21(DE3)
Method: For protein expression, competent E. coli BL21(DE3) cells (PROMEGA, Madison, WI, USA) were transformed with recombinant plasmid blaGES-5/pet24a(+) as reported. Protein purification was performed using an Äkta Prime plus chromatograph system (GE Healthcare Life Sciences, Freiburg, Germany). GES-5 (Uniprot ID Q09HD0) was conveniently purified in a single step using a Macro-Prep High Q resin (Bio-Rad, Hercules, CA, USA.).

GES-5 [2] = biological target: T1, GES-5; experiment: GES-5 hydrolysis inhibition, nitrocefin spectrophotometric assay; type: biochemical; conditions: for LE vs. GES-5: ligand efficiency from Ki vs GES-5
Method: (§1) Reactions were monitored using a Jasco V730 spectrophotometer. […] In order to perform spectrophotometric tests, compounds were dissolved in dimethyl sulfoxide (DMSO) to a concentration of 25 mM and stored at −20 °C. […] The reaction was typically initiated by adding GES-5 (2 nM final concentration), previously dialyzed in the reaction buffer. […] For KPC-2 experiments, the protein was obtained, and assays were conducted as previously reported.

KPC-2 = KPC-2 (Klebsiella pneumoniae, UniProt Q9F663); experiment: KPC-2 inhibition assay, conducted as previously reported; type: biochemical; conditions: for % inhibition at [1mM] vs KPC-2: 1 mM inhibitor; for Ki: calculated from IC50 by Cheng-Prusoff; for LE vs. KPC-2: ligand efficiency from Ki vs KPC-2
Sequence of KPC-2 (Q9F663 25-293, looked up, species assumed): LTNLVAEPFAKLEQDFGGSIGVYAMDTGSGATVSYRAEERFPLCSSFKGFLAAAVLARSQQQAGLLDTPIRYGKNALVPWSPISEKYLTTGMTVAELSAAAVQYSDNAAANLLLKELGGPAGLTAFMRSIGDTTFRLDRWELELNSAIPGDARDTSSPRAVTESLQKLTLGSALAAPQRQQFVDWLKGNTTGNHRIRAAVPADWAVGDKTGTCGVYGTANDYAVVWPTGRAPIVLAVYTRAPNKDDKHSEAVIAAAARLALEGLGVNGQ
Method: as §1

[3] = system: O=C(Cc1cccs1)N[C@@H]1C(=O)N2C(C(=O)O)=C(/C=C/c3ccc([N+](=O)[O-])cc3[N+](=O)[O-])CS[C@H]12; experiment: purified protein, by the assay type; conditions: other: reporter substrate, purified recombinant GES-5

T1 sequence (Q09HD0 19-287): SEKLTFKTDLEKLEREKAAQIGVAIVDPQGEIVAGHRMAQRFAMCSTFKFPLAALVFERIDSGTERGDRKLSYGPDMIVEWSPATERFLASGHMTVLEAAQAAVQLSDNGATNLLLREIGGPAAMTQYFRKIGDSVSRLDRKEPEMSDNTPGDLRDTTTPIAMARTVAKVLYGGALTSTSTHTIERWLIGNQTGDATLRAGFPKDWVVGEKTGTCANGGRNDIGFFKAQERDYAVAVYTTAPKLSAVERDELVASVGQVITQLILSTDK

O=C(Cc1cccs1)N[C@@H]1C(=O)N2C(C(=O)O)=C(CSc3ccc([N+](=O)[O-])c(C(=O)O)c3)CS[C@H]12 [CENTA]
Km (GES-5 [1]): 524 µM

COc1cc(Br)c(-c2nnn[nH]2)cc1OC [Compound 8]
Ki (GES-5 [2]): 890 µM | LE vs. GES-5 (GES-5 [2]): 0.89 (0.27) kcal/mol/non-hydrogen atom | % inhibition at [1mM] vs KPC-2 (KPC-2): at least 30% | Ki (KPC-2): 350 µM | LE vs. KPC-2 (KPC-2): 0.30 kcal/mol/non-hydrogen atom

O=C(O)c1cccc(S(=O)(=O)Nc2cccnc2)c1 [Compound 12]
Ki (GES-5 [2]): 1010 µM | LE vs. GES-5 (GES-5 [2]): 1.01 (0.22) kcal/mol/non-hydrogen atom | % inhibition at [1mM] vs KPC-2 (KPC-2): at least 30% | Ki (KPC-2): 1380 µM | LE vs. KPC-2 (KPC-2): 0.21 kcal/mol/non-hydrogen atom

Nc1nc(=O)n(CC(O)C(=O)O)cc1Br (centres unmarked) [Compound 13]
Ki (GES-5 [2]): 810 µM | % inhibition at [1mM] vs KPC-2 (KPC-2): at least 30% | Ki (KPC-2): 280 µM | LE vs. KPC-2 (KPC-2): 0.33 kcal/mol/non-hydrogen atom

COc1ccc2[nH]c(C(=O)O)nc2c1 [Compound 43]
% inhibition at [1mM] vs GES-5 (GES-5 [2]): 41% | Ki (GES-5 [2]): 660 µM | Ki (KPC-2): 450 µM | LE vs. KPC-2 (KPC-2): 0.33 kcal/mol/non-hydrogen atom

GES-5 (Klebsiella pneumoniae)
Km [3]: 208 µM
